Measured values: patent US10369131B2, “Ultrapure tetrahydrocannabinol-11-oic acids” (Corbus Pharmaceuticals, Inc., priority 2013, dated 2019)
Entries after “also recorded” stand apart in the source; their conditions may differ.

What was measured:
[1] = tested on: female CD-1 mice; test: Mouse hot plate test for antinociception; format: in vivo
[2] = tested on: female CD-1 mice; test: Ring immobility (catalepsy) test
Procedure: The cataleptic response was measured using the ring test described by Pertwee (Pertwee R G, The Ring Test. A Quantitative Method of Assessing the Cataleptic Effect of Cannabis in Mice, Br. J. Pharmacol. 46:753-763 (1972)). Mice were placed on a horizontal wire ring 5.5 cm in diameter attached to a 16 cm vertical rod. The hind paws and fore paws were placed at opposite sides of the ring. The ambient temperature was maintained at 30° C. and the environment was free of auditory stimuli and bright lights. The response was calculated as the fraction of time the mouse was immobile over a five (5) minute test period.
A dose response was conducted for ultrapure AJA to oral doses of 0.05 to 56 mg/kg.
(§1) Compounds were administered at a volume of […] via oral gavage.
(§2) Female CD-1 mice (20-25 g), obtained from Charles River (Raleigh, N.C.), were used for assessment in hot plate nociception, rectal temperature, and ring immobility assays. Separate mice were used for testing each dose of each compound in this battery of procedures. The mice had free access to food and water when in their home cages. All animals were kept in a temperature-controlled (20-22° C.) environment with a 12-hour light-dark cycle (lights on at 7 a.m.).
Each mouse was tested in a battery of three tests, in which cannabinoid CB1 agonists produce in vivo effects in mice (Martin et al., 1991): antinociception (hot plate assay), decreased rectal temperature and ring immobility. Prior to administration of the test compound, rectal temperature and baseline latency in the hot plate test were measured in the mice. The latter procedure involved placing the mouse on a heated surface (mouse cold/hot plate analgesia apparatus; Stoelting, Wood Dale, Ill.) at a setting of 55° C. Time until the mouse lifts or licks a paw was measured, whereupon the mouse was removed from the apparatus. […] After measurement of baseline temperature and hot plate latency, mice were administered vehicle or drug via oral gavage. […] Subsequently, the mice were placed on a 5.5 cm ring attached at a height of 16 cm to a ring stand, and the amount of time the animals remained motionless during a 5 min period was recorded. In addition, the number of times the mouse fell or jumped off the ring was recorded. If the mouse fell off the ring more than 5 times, the test was terminated.
Rectal temperature values were expressed as the difference between control temperature (before injection) and temperature following drug administration (Δ° C.). Antinociception was expressed as the percent maximum possible effect (MPE) using a 30-s maximum test latency as follows: [(test−control)/(30−control)]×100. During assessment for catalepsy, the total amount of time (in seconds) that the mouse remained motionless on the ring apparatus (except for breathing and whisker movement) was measured and was used as an indication of catalepsy-like behavior. This value was divided by 300 s and multiplied by 100 to obtain a percent immobility. If the mouse fell off the ring more than 5 times, the test was terminated and ring immobility data for the mouse were not included in analysis. Separate between-subjects ANOVAs were used to analyze each measure. Significant differences from control (vehicle) were further analyzed with Tukey post hoc tests (α=0.05) as necessary.

[3] = tested on: female CD-1 mice; test: Rectal temperature (mouse hypothermia assay); details: oral 0.05-56 mg/kg, 90 min after administration
Procedure: as §1, §2
Each mouse was tested in a battery of three tests, in which cannabinoid CB1 agonists produce in vivo effects in mice (Martin et al., 1991): antinociception (hot plate assay), decreased rectal temperature and ring immobility. Prior to administration of the test compound, rectal temperature and baseline latency in the hot plate test were measured in the mice. The latter procedure involved placing the mouse on a heated surface (mouse cold/hot plate analgesia apparatus; Stoelting, Wood Dale, Ill.) at a setting of 55° C. Time until the mouse lifts or licks a paw was measured, whereupon the mouse was removed from the apparatus. […] Subsequently, the mice were placed on a 5.5 cm ring attached at a height of 16 cm to a ring stand, and the amount of time the animals remained motionless during a 5 min period was recorded. In addition, the number of times the mouse fell or jumped off the ring was recorded. […]
Rectal temperature values were expressed as the difference between control temperature (before injection) and temperature following drug administration (Δ° C.). Antinociception was expressed as the percent maximum possible effect (MPE) using a 30-s maximum test latency as follows: [(test−control)/(30−control)]×100. During assessment for catalepsy, the total amount of time (in seconds) that the mouse remained motionless on the ring apparatus (except for breathing and whisker movement) was measured and was used as an indication of catalepsy-like behavior. […]

[4] = tested on: C57Bl mice, bleomycin induced skin fibrosis; test: Bleomycin induced skin fibrosis mouse model of scleroderma; format: in vivo; details: for inhibition of skin fibrosis: oral gavage 2.5, 5.0 and 10 mg/kg daily, bleomycin s.c. 14 days, sacrifice day 21
Procedure: Groups of 8 mice (6-12 week-old C57Bl) received daily s.c. injections of bleomycin (20 ug/mouse) or vehicle for 14 days, followed by one weeks of recovery. In parallel, starting day 1, ultrapure AJA suspended in 2% methylcellulose (MC) or vehicle was administered by oral gavage at 0, 2.5, 5.0 and 10 mg/kg. On day 21, mice were sacrificed. Their skin was harvested and processed for routine histology (H&E, trichrome and picrosirius red stains), immunohistology (paraffin-embedded or frozen samples), in situ hybridization, collagen (SIRCOL) assays, and RNA isolation for real-time qPCR or microarray hybridization. Skin sections were carefully characterized and quantified for dermal inflammation, dermal thickening, collagen accumulation (Trichrome), and collagen cross-linking (Sirius red) in lesional skin.

[5] = target: T1, hCB2 receptor (Homo sapiens, UniProt P34972)
Excerpt: (§3) When the CB1 or CB2 receptor is activated by an agonist, the affinity of the G protein alpha subunit increases with respect to GTP vs. GDP. As a consequence, GDP is displaced from the G protein and GTP or GTPγS binds. If a radioactive label, such as [^35S], is attached to the GTPγS molecule, then the formation of the G protein/[^35S]GTPγS complex can be directly measured using liquid scintillation spectrophotometry.
(§4) The CB1 and CB2 receptor assays involve membrane preparations purchased from Perkin Elmer (Waltham, Mass.) isolated from a HEK-293 expression system. G-protein coupled signal transduction (GTP-γ-[35S]) assays of test compounds were conducted in an incubation mixture consisting of a test compound (250 nM-1 mM), GDP (20 μM), GTP-γ-[35S] (100 pM), and the hCB1 and hCB2 membrane preparations (0.4 pM) in a total volume of 0.4 mL of assay buffer (50 mM TRIS-HCl, pH 7.4, 1 mM EDTA, 100 mM NaCl, 5 mM MgCl2, 0.5% (w/v) BSA). Nonspecific binding was determined in the presence of 100 μM unlabeled GTP-γ-S, and basal binding was determined in the absence of drug. Duplicate samples were incubated for 1 h at 30° C., and the bound complex was filtered from the reaction mixture as described previously and counted in a liquid scintillation counter. Specific binding was calculated by subtracting nonspecific binding from total binding and dividing by the total basal binding minus nonspecific binding. Data were plotted and analyzed with GraphPad Prism (GraphPad Software, Inc., San Diego, Calif.).

[6] = target: CB1 receptor (Homo sapiens, UniProt P21554); test: biochemical
Excerpt: as §3, §4

[7] = target: T1, hCB2 receptor; test: CB receptor radioligand binding assay, human CB2; set-up: expressed in transfected cells; host or cells: HEK-293T
Procedure: Membrane preparation—HEK-293T cells were cultured according to ATCC (Manassas, Va.) guidelines and transfected with human CB1 cDNA (Genbank X54937) or CB2 cDNA (Genbank X74328), operably linked to the SV40 promoter, using Polyfect (Qiagen, Valencia, Calif.) or Fugene (Roche, Nutley, N.J.) according to manufacturer's instructions. 48 h after transfection, cells were harvested in ice cold membrane buffer (20 mM HEPES, 6 mM MgCl2, 1 mM EDTA, pH 7.2) using a cell scraper. Cells were transferred to a nitrogen cavitation chamber and a pressure of […] was applied for 30 min. The pressure was released and the cell debris was collected and centrifuged at 1000 g at 4° C. for 10 min. The supernatant was collected and the spin was repeated until the supernatant was free of precipitate. […] The membrane concentration was determined using a BioRad (Hercules, Calif.) protein assay dye reagent according to manufacturer's instructions. […]
Membranes were incubated for 2 hr at room temperature, then filtered onto a presoaked (with 0.1% polyethylenimine for 1 to 2 hr) 96 well GF/B filterplate (Packard Bioscience, Shelton, Conn.) and washed with […] ice cold wash buffer (25 mM HEPES, 1 mM CaCl2, 5 mM MgCl2, 0.25M NaCl) using a Filtermate 196 Harvester (Packard Instruments, Downers Grove, Ill.). […] Plates were counted on a Topcount NXT (Packard, Shelton, Conn.). […]

[8] = dose response 0.05 to 56 mg/kg oral

Sequence of CB1 receptor (P21554 whole entry): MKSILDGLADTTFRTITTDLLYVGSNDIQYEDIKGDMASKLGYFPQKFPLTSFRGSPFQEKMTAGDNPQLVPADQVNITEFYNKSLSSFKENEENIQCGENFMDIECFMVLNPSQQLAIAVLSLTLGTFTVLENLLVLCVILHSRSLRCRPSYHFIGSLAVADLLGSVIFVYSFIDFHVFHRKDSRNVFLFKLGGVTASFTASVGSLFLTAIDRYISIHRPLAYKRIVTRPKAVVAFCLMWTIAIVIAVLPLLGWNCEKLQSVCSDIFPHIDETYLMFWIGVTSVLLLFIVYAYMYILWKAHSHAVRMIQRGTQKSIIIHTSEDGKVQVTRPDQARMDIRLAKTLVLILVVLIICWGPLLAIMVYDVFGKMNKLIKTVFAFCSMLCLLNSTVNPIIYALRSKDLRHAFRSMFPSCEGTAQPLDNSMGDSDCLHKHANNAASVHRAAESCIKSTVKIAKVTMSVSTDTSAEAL
T1 sequence (P34972 whole entry): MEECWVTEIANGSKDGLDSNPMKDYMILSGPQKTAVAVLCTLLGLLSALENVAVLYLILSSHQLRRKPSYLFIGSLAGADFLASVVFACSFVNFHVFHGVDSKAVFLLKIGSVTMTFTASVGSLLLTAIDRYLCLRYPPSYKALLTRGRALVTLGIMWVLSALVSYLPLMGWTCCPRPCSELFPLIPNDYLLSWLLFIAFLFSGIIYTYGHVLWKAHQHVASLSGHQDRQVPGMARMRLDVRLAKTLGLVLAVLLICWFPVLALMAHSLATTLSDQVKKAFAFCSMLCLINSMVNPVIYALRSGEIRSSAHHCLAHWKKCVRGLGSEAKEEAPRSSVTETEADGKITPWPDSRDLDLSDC

## CCCCCCC(C)(C)c1cc(O)c2c(c1)OC(C)(C)[C@@H]1CC=C(C(=O)O)C[C@@H]21 [JBT-101, (6aR,10aR)-3-(1′,1′-dimethylheptyl)-Δ8-tetrahydro-cannabinol-9-carboxylic acid]
[1]; [8]
  doses required to see analgesia compared with AJA from U.S. Pat. No. 5,338,753: required much higher doses
[1]; oral 0.05-56 mg/kg, 90 min after administration, vs vehicle
  antinociception in the hot plate test (% MPE): None of the doses tested produced significant antinociception
[1]; oral, FIG. 15
  doses at which active in the mouse hot plate assay: ≥ 30 mg/kg
[2]; [8]
  doses required to see catalepsy compared with AJA (3a) from U.S. Pat. No. 5,338,753: required much higher doses
[2]; lower oral doses, up to 10 mg/kg
  percent ring immobility in the catalepsy test: did not affect this measure
[2]; oral 30 and 56 mg/kg, vs vehicle, p<0.05
  percent ring immobility in the catalepsy test: significantly increased percent ring immobility
[2]; oral in oil, FIG. 14
  doses at which active in the ring test: ≥ 30 mg/kg
[3]
  change in rectal temperature (hypothermia): None of the doses tested produced significant; also recorded: inactive
[4]; all oral doses, including 1 mg/kg (data not shown)
  inhibition of skin thickening: equally effective
[4]
  inhibition of skin fibrosis: effective at inhibiting skin fibrosis
[4]; listed as ultrapure AJA
  inhibition of skin fibrosis: effective at all doses tested
[5]; FIG. 13
  potency in the GTP-gamma-S assay better in the CB2 assay than in the CB1 assay: ~10 ×
[5]; GTP-γ-35S EC50 CB1 vs CB2
  difference in potency for activation of CB2 versus CB1 receptors: 9 fold
[6]; hCB1 EC50 Mean (±SEM), GTP-γ-35S turnover, mean of 4 repetitions
  EC50: 9.21 ± 2.04 µM
[6]; hCB1 EC50 Rep 1, GTP-γ-35S turnover, replicate 1
  EC50: 13.7 µM
[6]; hCB1 EC50 Rep 2, GTP-γ-35S turnover, replicate 2
  EC50: 5.83 µM
[6]; hCB1 EC50 Rep 3, GTP-γ-35S turnover, replicate 3
  EC50: 11.6 µM
[6]; hCB1 EC50 Rep 4, GTP-γ-35S turnover, replicate 4
  EC50: 5.66 µM
[7]
  Ki: 0.051 ± 0.011 µM
